Read-outs that look alike come from different tables or passages of the source.
Legend:
[1] = tested on: Salmonella typhimurium TA102; details: 250 µM;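 further: compound and mutagen preincubated 30 min at 37 °C before adding bacteria, His+ revertant colonies counted after 48 h at 37 °C, inhibition relative to mutagen-alone minus negative-control revertants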
Experimental: (§1) In the preincubation experiment, test compounds and mutagen, each having a volume of 0.1 mL of varying concentrations, were preincubated at 37°C for 30 min and then 0.1 mL of 1 × 10^7 CFU/mL density of the bacterial culture was added, followed by the addition of 2.5 mL of top agar at 45°C (containing 0.5% NaCl and 0.6% agar) supplemented with 0.5 mM histidine-biotin. […] The combined solutions were vortexed and poured onto minimal glucose plates (40% glucose solution and Vogel Bonner medium). The plates were incubated at 37°C for 48 h and the numbers of histidine-independent revertants colonies were scored.
(§2) Survival of the bacteria was routinely monitored for each experiment. Parallel controls were run with compounds alone at all concentrations to test the possible toxicity. The concentrations of the test samples for investigating the antimutagenicity were 50, 100, 200, and 500 μM. […] All the test samples and mutagens were dissolved in DMSO (final conc., 0.01%). […] Plates were set up in triplicate for each concentration and the entire experiment was repeated three times. Inhibition of mutagenicity was expressed as percentage decrease of reverse mutation and calculated as (1) Percent inhibition=[(a−b)/(a−c)]×100, where a = number of histidine revertants induced by mutagen, b = number of histidine revertants induced by mutagen in the presence of test compound, and c = number of revertants induced in negative control.

[2] = tested on: BP-induced DNA adducts (rat liver microsomes, st-DNA); assay: Microsomal BP-DNA adducts, 32P-postlabeling; type: biochemical; details: for BP-induced DNA adducts: BP 1 μM, rat liver microsomes, st-DNA
Experimental: st-DNA (300 μg/mL) was preincubated with 50 mM Tris-HCl (pH 7.5), 1 mM MgCl2, 2.5 mM glucose-6-phosphate, 1 U/mL G6PDH, 0.5 mM NADP+, and α-naphthoflavone-induced rat liver microsomal proteins (1 mg/mL) in 1 mL for 10 min, in the presence of vehicle alone and PC and EA at 20 and 40 μM. […] The incubation was continued for another 30 min at 37°C and then reaction was terminated by the addition of EDTA and centrifugation (9,000 g; 10 min). DNA was isolated from the supernatant by removal of RNA and proteins by digestions with RNases A and T1 and proteinase K and a series of extractions with phenol, phenol: Sevag (chloroform : isoamyl alcohol, 24 : 1), and Sevag, followed by precipitation of the DNA with ethanol. The DNA concentration was estimated spectrophotometrically.
DNA adducts were analyzed by ^32P-postlabeling as described earlier. Briefly, 10 μg of DNA was digested with micrococcal nuclease and spleen phosphodiesterase (MN/SPD). Before further treatment with nuclease P1 to enrich DNA adducts, an aliquot was removed for evaluation of normal nucleotide levels. DNA adducts and normal nucleotides were labelled with [γ-^32P]ATP and T4 polynucleotide kinase. Labelled adducts were separated by multidirectional polyethyleneimine (PEI)-cellulose TLC using the following solvents: D1, 1.0 M sodium phosphate, pH 6.0; D3, 4 M lithium formate/7 M urea, pH 3.5; D4, 4 M ammonium hydroxide/isopropanol (1 : 0.9); and D5, 1.7 M sodium phosphate, pH 6.0. Normal nucleotides were resolved in 180 mM sodium phosphate, pH 6.0, by one-directional PEI-cellulose TLC. DNA adducts and normal nucleotides were detected and quantified by Packard InstantImager.

[3] = tested on: Salmonella typhimurium TA100; assay: Ames antimutagenicity assay (preincubation); details: for inhibition at 50 µM / inhibition at 100 µM / inhibition at 250 µM / inhibition at 500 µM: Salmonella enterica, TYPHIMURIUM;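 on all read-outs here: compound and mutagen preincubated together 30 min at 37°C before bacteria added, then plates incubated 48 h at 37°C, inhibition relative to mutagen-alone revertants after subtracting the negative control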
Experimental: as §1, §2

[4] = tested on: Salmonella typhimurium TA97a; details: 250 µM;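 further: compound and mutagen preincubated together 30 min at 37 °C before adding bacteria, then plated on minimal glucose agar for 48 h and His+ revertant colonies counted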
Experimental: as §1, §2

[5] = tested on: Salmonella typhimurium TA98; details: 250 µM;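 further: test compound and mutagen preincubated 30 min at 37°C before adding bacteria, then His+ revertant colonies counted after 48 h plating, inhibition relative to mutagen-only versus negative-control revertants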
Experimental: as §1, §2

[6] = tested on: Salmonella typhimurium strains TA97a, TA98, TA100, and TA102; assay: Ames test, statements over all tester strains; details: 50–500 μM
Experimental: as §1, §2

[7] = tested on: Salmonella typhimurium TA100; details: 250 µM;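 further: compound and mutagen preincubated together 30 min at 37°C before bacteria added, then plates incubated 48 h at 37°C, inhibition relative to mutagen-alone revertants after subtracting the negative control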
Experimental: as §1, §2

[8] = tested on: Salmonella typhimurium strains TA97a, TA98, TA100, and TA102
Experimental: as §1, §2

Compound: O=c1oc2c(O)c(O)cc3c(=O)oc4c(O)c(O)cc1c4c23 [Ellagic acid, ellagic acid]
- inhibition [1]: 74.1%
- BP-induced DNA adducts ([2]; 20 μM test compound): 58.6 ± 2.8 DNA adducts/10^8 nucleotides
- BP-induced DNA adducts ([2]; 40 μM test compound): 50.9 ± 8.1 DNA adducts/10^8 nucleotides
- inhibition of BP-induced DNA adducts ([2]; 40 μM, BP with rat liver microsomes, cofactors, DNA): 77%
- inhibition at 50 µM ([3]; read-out: % inhibition of mutagenicity, TA 100, 50 μM + 2AF, S9): 22.5%
- inhibition at 50 µM ([3]; read-out: % inhibition of mutagenicity, TA 100, 50 μM + BP, S9): 21.8%
- inhibition at 50 µM ([3]; read-out: % inhibition of mutagenicity, TA 100, 50 μM + MMS, no S9): 8%
- inhibition at 50 µM ([3]; read-out: % inhibition of mutagenicity, TA 100, 50 μM + NaN3, no S9): 11.4%
- inhibition at 100 µM ([3]; read-out: % inhibition of mutagenicity, TA 100, 100 μM + 2AF, S9): 46.1%
- inhibition at 100 µM ([3]; read-out: % inhibition of mutagenicity, TA 100, 100 μM + BP, S9): 42.8%
- inhibition at 100 µM ([3]; read-out: % inhibition of mutagenicity, TA 100, 100 μM + MMS, no S9): 26.4%
- inhibition at 100 µM ([3]; read-out: % inhibition of mutagenicity, TA 100, 100 μM + NaN3, no S9): 25.6%
- inhibition at 250 µM ([3]; read-out: % inhibition of mutagenicity, TA 100, 250 μM + BP, S9): 70%
- inhibition at 250 µM ([3]; read-out: % inhibition of mutagenicity, TA 100, 250 μM + MMS, no S9): 45.1%
- inhibition at 250 µM ([3]; read-out: % inhibition of mutagenicity, TA 100, 250 μM + NaN3, no S9): 46.4%
- inhibition at 500 µM ([3]; read-out: % inhibition of mutagenicity, TA 100, 500 μM + 2AF, S9): 83.8%
- inhibition at 500 µM ([3]; read-out: % inhibition of mutagenicity, TA 100, 500 μM + BP, S9): 88.9%
- inhibition at 500 µM ([3]; read-out: % inhibition of mutagenicity, TA 100, 500 μM + MMS, no S9): 65.3%
- inhibition at 500 µM ([3]; read-out: % inhibition of mutagenicity, TA 100, 500 μM + NaN3, no S9): 65.9%
- Number of His+ revertants colonies/plate ([3]; TA 100, 50 μM + 2AF, S9): 426.0 ± 18.6 colonies/plate
- Number of His+ revertants colonies/plate ([3]; TA 100, 50 μM + BP, S9): 580.3 ± 25.6 colonies/plate
- Number of His+ revertants colonies/plate ([3]; TA 100, 50 μM + MMS, no S9): 900.3 ± 16.3 colonies/plate
- Number of His+ revertants colonies/plate ([3]; TA 100, 50 μM + NaN3, no S9): 340.7 ± 9.4 colonies/plate
- Number of His+ revertants colonies/plate ([3]; TA 100, 100 μM + 2AF, S9): 350.0 ± 12.8 colonies/plate
- Number of His+ revertants colonies/plate ([3]; TA 100, 100 μM + BP, S9): 472.3 ± 19.4 colonies/plate
- Number of His+ revertants colonies/plate ([3]; TA 100, 100 μM + MMS, no S9): 754.0 ± 8.2 colonies/plate
- Number of His+ revertants colonies/plate ([3]; TA 100, 100 μM + NaN3, no S9): 312.3 ± 8.4 colonies/plate
- Number of His+ revertants colonies/plate ([3]; TA 100, 250 μM + BP, S9): 336.0 ± 17.6 colonies/plate
- Number of His+ revertants colonies/plate ([3]; TA 100, 250 μM + MMS, no S9): 598.7 ± 14.2 colonies/plate
- Number of His+ revertants colonies/plate ([3]; TA 100, 250 μM + NaN3, no S9): 266.0 ± 7.8 colonies/plate
- Number of His+ revertants colonies/plate ([3]; TA 100, 500 μM + 2AF, S9): 240.7 ± 9.8 colonies/plate
- Number of His+ revertants colonies/plate ([3]; TA 100, 500 μM + BP, S9): 245.7 ± 14.4 colonies/plate
- Number of His+ revertants colonies/plate ([3]; TA 100, 500 μM + MMS, no S9): 420.3 ± 6.9 colonies/plate
- Number of His+ revertants colonies/plate ([3]; TA 100, 500 μM + NaN3, no S9): 210.3 ± 12.4 colonies/plate
- inhibition [4]: 44.9%
- inhibition [5]: 56.3%
- toxicity to Salmonella typhimurium strains ([6]; absence of S9): No toxicity
- maximum inhibition of mutagenicity ([6]; against sodium azide, MMS, BP, 2AF): up to 90%
- inhibition [7]: 67.7%
- mutagenic activity [8]: No mutagenic activity
